For 28 compounds, IC50 results are on record in patent US20240132464A1, “HETEROCYCLIC COMPOUNDS AS E3 LIGASE INHIBITORS” (Accutar Biotechnology Inc., priority 2022, published 2024).

Bounds are passed on as bounds.

The target in the assay is T1, GID4 (Uniprot ID: Q81VV7, residues 124-289) (Homo sapiens, UniProt Q8IVV7).
T1 construct: GID4 (Uniprot ID: Q81VV7, residues 124-289)
T1 sequence (Q8IVV7 124-289): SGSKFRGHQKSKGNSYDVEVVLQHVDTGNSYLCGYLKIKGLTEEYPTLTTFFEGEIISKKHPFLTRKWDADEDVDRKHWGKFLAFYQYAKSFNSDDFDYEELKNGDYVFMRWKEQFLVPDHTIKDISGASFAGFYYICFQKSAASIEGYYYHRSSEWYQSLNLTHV
In words: GID4 competitive binding assay (AlphaScreen, GID4/degron peptide PGLW). The settings on record: 24 nM GID4, 48 nM biotinylated degron peptide PGLW, 4° C., read-out: IC50 (Inhibition of GID4/Degron binding by test compounds). The gist of the method: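 Displacement of biotin-tagged degron tetrapeptide PGLW (48 nM) from C-terminally 6His-tagged GID4 124-289 (24 nM) read by AlphaScreen proximity signal. Compound incubation 2 h, then beads 1 h, all at 4 °C, pH 7.5, 2% DMSO final; background-corrected inhibition fitted with variable slope for IC50.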
For orientation: In Alpha technology, singlet oxygen from a donor bead excites a nearby acceptor bead.
Turning to `Nc1cc(N2CCN(CCO)[C@@H](c3ccccc3Br)C2)nc(NC2CC2)n1` (stereo in doubt) [Compound 69, (S/R)-2-(4-(6-amino-2-(cyclopropylamino)pyrimidin-4-yl)-2-(2-bromophenyl)piperazin-1-yl)ethan-1-ol], the IC50 was above 5000 nM.

For the compound `Nc1cc(N2CCN(CCO)[C@H](c3ccccc3Br)C2)nc(NC2CC2)n1` (stereo in doubt) [Compound 70, (R/S)-2-(4-(6-amino-2-(cyclopropylamino)pyrimidin-4-yl)-2-(2-bromophenyl)piperazin-1-yl)ethan-1-ol], the IC50 was 500 to 5000 nM.

Regarding `CNc1cc(N2CCN(C)[C@H](c3ccccc3Br)C2)nc(NC)n1` (stereo in doubt) [Compound 80, (R/S)-6-(3-(2-bromophenyl)-4-methylpiperazin-1-yl)-N2,N4-dimethylpyrimidine-2,4-diamine], the IC50 was 500 to 5000 nM.

`CNc1cc(N2CCN(C)[C@@H](c3ccccc3Br)C2)nc(NC)n1` (stereo in doubt) [Compound 81, (S/R)-6-(3-(2-bromophenyl)-4-methylpiperazin-1-yl)-N2,N4-dimethylpyrimidine-2,4-diamine]: the IC50 fell in the range of 500 to 5000 nM.

Take `CNc1cc(N2CCC[C@H](c3ccccc3Br)C2)nc(NC)n1` (stereo in doubt) [Compound 83, (R/S)-6-(3-(2-bromophenyl)piperidin-1-yl)-N2,N4-dimethylpyrimidine-2,4-diamine]: the IC50 lay in the range of 500 to 5000 nM.

`CNc1cc(N2CCC[C@@H](c3ccccc3Br)C2)nc(NC)n1` (stereo in doubt) [Compound 84, (S/R)-6-(3-(2-bromophenyl)piperidin-1-yl)-N2,N4-dimethylpyrimidine-2,4-diamine]: the IC50 was 500 to 5000 nM.

For the compound `CNc1cc(N2CCC[C@H](c3ccccc3Br)C2)nc(N)n1` (stereo in doubt) [Compound 86, (R/S)-6-(3-(2-bromophenyl)piperidin-1-yl)-N4-methylpyrimidine-2,4-diamine], the IC50 lay in the range of 500 to 5000 nM.

Consider `CNc1cc(N2CCC[C@@H](c3ccccc3Br)C2)nc(N)n1` (stereo in doubt) [Compound 87, (S/R)-6-(3-(2-bromophenyl)piperidin-1-yl)-N4-methylpyrimidine-2,4-diamine], for which the IC50 was below 500 nM.

`Nc1nc(NC2CC2)cc(N2CCO[C@H](c3ccccc3Br)C2)n1` (stereo in doubt) [Compound 97, (R/S)-6-(2-(2-bromophenyl)morpholino)-N4-cyclopropylpyrimidine-2,4-diamine]: the IC50 is above 5000 nM.

`Nc1nc(NC2CC2)cc(N2CCO[C@@H](c3ccccc3Br)C2)n1` (stereo in doubt) [Compound 98, (S/R)-6-(2-(2-bromophenyl)morpholino)-N4-cyclopropylpyrimidine-2,4-diamine]: the IC50 is below 500 nM.

For the compound `CNc1cc(N2CCN[C@@H](c3ccccc3Br)C2)nc(NC)n1` (stereo in doubt) [Compound 130, (S/R)-6-(3-(2-bromophenyl)piperazin-1-yl)-N2,N4-dimethylpyrimidine-2,4-diamine], the IC50 was above 5000 nM.

With `CNc1cc(N2CCN[C@H](c3ccccc3Br)C2)nc(NC)n1` (stereo in doubt) [Compound 131, (R/S)-6-(3-(2-bromophenyl)piperazin-1-yl)-N2,N4-dimethylpyrimidine-2,4-diamine], the IC50 is below 500 nM.

On to `Nc1nc(C2CC2)cc(N2CCN[C@H](c3ccccc3Br)C2)n1` (stereo in doubt) [Compound 132, (R/S)-4-(3-(2-bromophenyl)piperazin-1-yl)-6-cyclopropylpyrimidin-2-amine], for which the IC50 lay in the range of 500 to 5000 nM.

For the compound `Nc1nc(C2CC2)cc(N2CCN[C@@H](c3ccccc3Br)C2)n1` (stereo in doubt) [Compound 133, (S/R)-4-(3-(2-bromophenyl)piperazin-1-yl)-6-cyclopropylpyrimidin-2-amine], the IC50 was in the range of 500 to 5000 nM.

`CNc1cc(N2CCN(C)[C@H](c3ccccc3Br)C2)nc(N)n1` (stereo in doubt) [Compound 154]: the IC50 is 500 to 5000 nM.

For the compound `CNc1cc(N2CCN(C)[C@@H](c3ccccc3Br)C2)nc(N)n1` (stereo in doubt) [Compound 155, (S/R)-6-(3-(2-bromophenyl)-4-methylpiperazin-1-yl)-N4-methylpyrimidine-2,4-diamine], the IC50 was below 500 nM.

Take `CC(C)c1cc(N2CCN[C@@H](c3cnc4ccccn34)C2)c2nc[nH]c2n1` (stereo in doubt) [Compound 368, (R/S)-7-(3-(imidazo[1,2-a]pyridin-3-yl)piperazin-1-yl)-5-isopropyl-3H-imidazo[4,5-b]pyridine]: the IC50 fell in the range of 500 to 5000 nM.

As for `CC(C)c1cc(N2CCN[C@H](c3cnc4ccccn34)C2)c2nc[nH]c2n1` (stereo in doubt) [Compound 369, (S/R)-7-(3-(imidazo[1,2-a]pyridin-3-yl)piperazin-1-yl)-5-isopropyl-3H-imidazo[4,5-b]pyridine], the IC50 was below 500 nM.

Turning to `Nc1nccc2ccc(-c3ccc4[nH][nH]c(=O)c4c3)cc12` [Compound 1, 5-(1-aminoisoquinolin-7-yl)-1,2-dihydro-3H-indazol-3-one], the IC50 fell in the range of 500 to 5000 nM.

`CC(C)c1cc(N2Cc3ccnn3C(c3ccccc3Br)C2)nc(N)n1` (stereo not shown) [Compound 2, 4-(7-(2-bromophenyl)-6,7-dihydropyrazolo[1,5-a]pyrazin-5(4H)-yl)-6-isopropylpyrimidin-2-amine]: the IC50 lay in the range of 500 to 5000 nM.

As to `CN(C)CCNCc1n[nH]c2ccc(-c3ccc4ccnc(N)c4c3)cc12` [Compound 3, N1-((5-(1-aminoisoquinolin-7-yl)-1H-indazol-3-yl)methyl)-N2,N2-dimethylethane-1,2-diamine], the IC50 is below 500 nM.

Turning to `CN(C)CCNC(=O)c1c[nH]c2ncc(-c3ccc4ccnc(N)c4c3)cc12` [Compound 8, 5-(1-aminoisoquinolin-7-yl)-N-(2-(dimethylamino)ethyl)-1H-pyrrolo[2,3-b]pyridine-3-carboxamide], the IC50 is above 5000 nM.

For `CN(C)CCNC(=O)c1ccc(Br)c(C2CN(c3cc(N)nc(N)n3)CCN2)c1` (stereo not shown) [Compound 9, 4-bromo-3-(4-(2,6-diaminopyrimidin-4-yl)piperazin-2-yl)-N-(2-(dimethylamino)ethyl)benzamide], the IC50 was below 500 nM.

Regarding `CN1CCC(C)(NC(=O)c2n[nH]c3ccc(-c4ccc5ccnc(N)c5c4)cc23)CC1` [Compound 10, 5-(1-aminoisoquinolin-7-yl)-N-(1,4-dimethylpiperidin-4-yl)-1H-indazole-3-carboxamide], the IC50 is below 500 nM.

Consider `CC(C)c1cc(N2CCCC(c3cnc4ccccn34)C2)c2nc[nH]c2n1` (stereo not shown) [Compound 19, 7-(3-(imidazo[1,2-a]pyridin-3-yl)piperidin-1-yl)-5-isopropyl-3H-imidazo[4,5-b]pyridine], for which the IC50 is below 500 nM.

Turning to `CC(C)c1cc(N2CCNC(c3cnn4ccccc34)C2)nc(N)n1` (stereo not shown) [Compound 22, 4-isopropyl-6-(3-(pyrazolo[1,5-a]pyridin-3-yl)piperazin-1-yl)pyrimidin-2-amine], the IC50 is below 500 nM.

On to `Nc1cc(N2CCOC(c3ccccc3C(F)(F)F)C2)nc(N)n1` (stereo not shown) [Compound 29, 6-(2-(2-(trifluoromethyl)phenyl)morpholino)pyrimidine-2,4-diamine], for which the IC50 is below 500 nM.

`CC(C)c1cc(N2CCNC(c3cnc4ccccn34)C2)nc(N)n1` (stereo not shown) [Compound 32, 4-(3-(imidazo[1,2-a]pyridin-3-yl)piperazin-1-yl)-6-isopropylpyrimidin-2-amine]: the IC50 is below 500 nM.
